This is an account of results in PubChem BioAssay AID179 (DTP/NCI, 2004).

This experiment concerns CEM cells HIV-1 protection, formazan growth assay. In words: NCI AIDS Antiviral Assay. The note with it: for IC50: measured here: growth of uninfected CEM cells. In short, it runs like this:
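CEM (human) cells, HIV-1 infected vs uninfected, 5-point dosing, formazan growth read-out. Retest threshold 50% protection.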

“And” between values parts separate entries of the source, which are not always exact repeats. Equal entries are not always repeated. The source made the active and inactive calls.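 How the source made its calls: active means compounds giving half or more protection of infected cells from virus-caused growth loss, again on retest; inactive means the rest.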

Take `O=C(OC(=C(c1ccccc1)c1ccccc1)N1CCCC1=S)C(c1ccccc1)c1ccccc1`: the EC50 was greater than 200 µM and the IC50 was greater than 200 µM.

On to `Cc1cccc(N=C2NC(=O)C(CC(=O)Nc3ccc(C)cc3C)S2)c1` (configuration not stated), for which the EC50 was greater than 26.9 µM and the concentration for half-maximal inhibition (IC50) is greater than 26.9 µM.

On to `Nc1nc(SSc2nc(N)nc3c2ncn3C2OC(CO)C(O)C2O)c2ncn(C3OC(CO)C(O)C3O)c2n1` (configuration not stated), for which the EC50 was greater than 20 µM and the IC50 is 0.339 µM.

As for `COc1cc2c3c(c1)SC(C)C(=O)N3CCN2` (configuration not stated), the EC50 was greater than 200 µM and the IC50 was determined as 105 µM.

As to `O=C(/C=C/c1ccccc1)/C=C/c1ccccc1O`, the EC50 was greater than 145 µM and the concentration for half-maximal inhibition (IC50) was determined as 61.7 µM.

In the case of `CCCC(C(=O)OCCN1CCCC12CCCCC2)C1CCCC1` (configuration not stated), the EC50 is greater than 200 µM and the IC50 is 11 µM.

For the compound `CCCCCC=C(c1cc(Cl)c(OC)c(C(=O)NO)c1)c1cc(Cl)c(OC)c(C(=O)NO)c1`, the EC50 is greater than 200 µM and the concentration for half-maximal inhibition (IC50) worked out at 1.95 µM.

Take `COC(=O)C1CCC(=O)N1C(c1ccccc1)c1cc(OC)c(OC)c(OC)c1` (configuration not stated): the EC50 is greater than 200 µM and the IC50 stood at 34.7 µM.

Take `CCOc1ccc(C(CN2CCOCC2)C(C)=O)cc1OC` (configuration not stated): the EC50 was greater than 724 µM and the IC50 came to 1.95 µM.

Consider `O=C(SC1=NCCN1)c1cccc2ccccc12`, for which the EC50 was greater than 200 µM and the concentration for half-maximal inhibition (IC50) was determined as 28.8 µM.

Consider `CC(=O)OC[C@H]1O[C@@H](O[C@H]2[C@H](OC(C)=O)C=CO[C@@H]2COC(C)=O)C(OC(C)=O)[C@H]2OC(C)(C)O[C@H]21` (some centres not stated), for which the EC50 was greater than 200 µM and the IC50 worked out at 69.2 µM.

With `NC(=O)NCCCC(NC(=O)OCCCCn1ccc(=O)[nH]c1=O)C(=O)O` (configuration not stated), the EC50 was greater than 200 µM and the IC50 is greater than 200 µM.

Consider `CCCC(=N\N=C(N)N)/C(C)=N/N=C(N)N`, for which the EC50 was greater than 79.4 µM and the concentration for half-maximal inhibition (IC50) was greater than 79.4 µM.

`Cc1cc(C)nc(NS(=O)(=O)c2ccc(NC(=O)c3cccc4c(Nc5ccc(S(=O)(=O)N=C(N)N)cc5)c5ccc(Cl)cc5nc34)cc2)n1`: the EC50 is greater than 49 µM and the IC50 is greater than 49 µM.

On to `COC(=O)C1(Cc2ccccc2)Cc2cc3c(cc2C1)CCC3`, for which the EC50 was greater than 200 µM and the concentration for half-maximal inhibition (IC50) amounted to 60.3 µM.

As for `O=S(=O)(SC1=NCCN1)c1ccccc1`, the EC50 was 105 µM and the IC50 worked out at 302 µM.

Consider `Clc1ccccc1CN1COc2c(ccc3ccccc23)C1`, for which the EC50 is greater than 200 µM and the IC50 was found to be 28.8 µM.

On to `NC(CSP(=O)(O)O)=NCC12CC3CC(CC(C3)C1)C2`, for which the result was inactive.

For `O=C(O)CCCO`, the EC50 is greater than 200 µM and the IC50 is greater than 200 µM.

In the case of `CCCCCOC(=O)c1cccc(NC(=O)CN(CC)CC)c1`, the EC50 was greater than 200 µM and the IC50 was 95.5 µM.

With `O=[N+]([O-])c1ccc(N=Cc2ccc(O)cc2)cc1`, the EC50 was greater than 200 µM and the IC50 was determined as 10 µM.

Turning to `COc1ccc2c(c1)CC1Cc3ccccc3CCN1C2` (configuration not stated), the EC50 is greater than 200 µM and the IC50 was 39.8 µM.

For `CC(C)(Oc1ccccc1)C(=O)Sc1c(-c2ccccc2)c(=O)n(-c2ccccc2)c(=S)n1-c1ccccc1`, the EC50 was greater than 200 µM and the IC50 was 1.35 µM.

Consider `O=c1ccn([C@@H]2C=C(CO)[C@@H](O)[C@H]2O)c(=O)[nH]1`, for which the EC50 was greater than 200 µM and the concentration for half-maximal inhibition (IC50) was greater than 200 µM.

Take `Cn1c(=O)c2c(nc3n2C(CCl)CO3)n(C)c1=O` (configuration not stated): the result was inactive.

For the compound `CC(C)(C)[Si](C)(C)OCC1OC(n2ccc(=O)[nH]c2=O)C(O[Si](C)(C)C(C)(C)C)C1CC#N` (configuration not stated), the EC50 was greater than 200 µM, the outcome was inactive and the IC50 came out at 11.7 µM.

On to `N#Cc1cccc(/C=C/C(=O)c2ccccc2)c1`, for which the EC50 was greater than 22.4 µM and the IC50 worked out at 4.07 µM.

In the case of `O=S(=O)(SCc1ccccc1)C(c1ccccc1)c1ccccc1`, the EC50 is greater than 105 µM and the IC50 worked out at 6.31 µM.

Consider `CC(=O)[O-].Cc1ccnc(NS(=O)(=O)c2ccc(N=Cc3ccccc3[O-])cc2)n1.Cc1ccnc(NS(=O)(=O)c2ccc(N=Cc3ccccc3[O-])cc2)n1.[Co+2].[H+]`, for which the EC50 was greater than 200 µM and the 50% inhibitory concentration (IC50) came to 10.5 µM.

For the compound `O=C1CCCCCCCCCCOC(=O)CCCCCCCCCCO1`, the EC50 is greater than 10.2 µM and the 50% inhibitory concentration (IC50) is greater than 10.2 µM.

With `C[C@H]1CC(=O)C[C@@H]2CC[C@@H]3[C@H](CC[C@]4(C)C(OC(=O)c5cccc6c(=O)c7ccccc7[nH]c56)CC[C@@H]34)[C@]21C` (some centres not stated), the EC50 is greater than 200 µM and the half-inhibitory concentration (IC50) came out at 22.4 µM.

For `N#CNc1nc(N)c(-c2ccc(Cl)cc2)c(C(=O)Nc2nccs2)n1`, the EC50 was greater than 676 µM and the IC50 is greater than 676 µM.

With `COc1ccc2c(c1)OC[C@@H]1c3cc4c(cc3O[C@H]21)OCO4`, the EC50 is greater than 63.1 µM and the IC50 was greater than 63.1 µM.

On to `Cc1cc2c(c3c1c1ccccc1n3C)C(=O)C=CC2=O`, for which the EC50 was greater than 36.3 µM and the half-maximal inhibitory concentration (IC50) is 3.72 µM.

Consider `COc1cc(CNC2c3cc4c(cc3C(c3cc(OC)c(OC)c(OC)c3)[C@H]3C(=O)OCC23)OCO4)cc(OC)c1OC` (some centres not stated), for which the result was inactive.

Consider `COC(=O)[C@H](Cc1ccccc1)NP(=O)(O)OCC1C=CC(n2cc(C)c(=O)[nH]c2=O)O1` (some centres not stated), for which the concentration for a half-maximal effect (EC50) was 8.71 µM and the IC50 was greater than 200 µM.

For the compound `Cc1ccc2nc(NC(=O)/C(Cc3nc4ccc(Cl)cc4[nH]c3=O)=N\NC(C)(C)C)sc2c1`, the EC50 is greater than 74.1 µM and the IC50 is greater than 74.1 µM.

`CC(C)(Oc1ccc(/C=C/C(=O)c2ccccc2)cc1)C(=O)Nc1c(Cl)cccc1Cl`: the EC50 is greater than 8.32 µM and the half-inhibitory concentration (IC50) was greater than 8.32 µM.

Consider `FC(F)(F)c1ccc2nc(Nc3ccc(Cl)c(Cl)c3)c(-c3ccccc3)nc2c1`, for which the EC50 was greater than 12 µM and the IC50 is 8.13 µM.

With `CCC(=O)CCCC=C(c1cc(Cl)c(OC)c(C=O)c1)c1cc(Cl)c(OC)c(C=O)c1`, the EC50 is greater than 200 µM and the 50% inhibitory concentration (IC50) worked out at 1.12 µM.

On to `COC(=O)Cc1ccc2c(c1)Sc1ccc(CC(=O)OC)cc1N2C`, for which the EC50 was greater than 200 µM and the IC50 turned out to be 4.47 µM.

For the compound `COC(=O)C(C(=O)C(=O)Nc1c(Cl)cc([N+](=O)[O-])cc1Cl)c1nc2cc(C)c(C)cc2[nH]c1=O` (configuration not stated), the EC50 was greater than 97.7 µM and the 50% inhibitory concentration (IC50) is greater than 97.7 µM.

`CCN(CC)c1ccc2c(c1)Oc1cc(N(CC)CC)ccc1C21c2ccccc2C(=O)N1c1ccccc1`: the EC50 is greater than 200 µM and the IC50 was greater than 200 µM.

Consider `CO/C(CO)=C1\CC2(OC1=O)[C@@H]1O[C@@H]1C1(O)[C@H]3C(=O)O[C@@H]([C@@H](OC)C21C)[C@@]3(O)C(C)C` (some centres not stated), for which the EC50 is greater than 407 µM and the IC50 was greater than 407 µM.

For the compound `CSc1nc2c(c(=O)[nH]1)N=C(c1ccc([N+](=O)[O-])cc1)CC(c1ccccc1)N2` (configuration not stated), the result was inactive.

Consider `Clc1ccc(C2=Cc3nc2c(-c2ccccc2)c2ccc([nH]2)c(-c2ccccc2)c2nc(c(-c4ccccc4)c4ccc([nH]4)c3-c3ccccc3)C=C2)cc1`, for which the EC50 is greater than 200 µM and the IC50 is greater than 200 µM.

Take `O=c1[nH]c(=O)n(C2CC(F)C(CO)O2)cc1C(OCC(F)(F)F)OCC(F)(F)F` (configuration not stated): the concentration giving a half-maximal response (EC50) worked out at 37.2 µM and the concentration for half-maximal inhibition (IC50) was 195 µM.

`COc1ccc(N2C(=O)C3c4[nH]c5ccc(Br)cc5c4C4CCC(C(C)(C)C)CC4C3C2=O)cc1` (configuration not stated): the outcome was inactive.

As to `CC1SC(C)SC(C(C)(C)O)S1` (configuration not stated), the EC50 is greater than 32.4 µM and the IC50 was greater than 32.4 µM.

For the compound `NNC(=O)C1CC2c3ccccc3C1c1ccccc12` (configuration not stated), the outcome was inactive.

For the compound `C[n+]1ccc(-c2c3nc(c(-c4cc[n+](C)cc4)c4ccc([n-]4)c(-c4cc[n+](C)cc4)c4nc(c(-c5cc[n+](C)cc5)c5ccc2[n-]5)C=C4)C=C3)cc1.[I-].[Zn+2]`, the EC50 is greater than 72.4 µM and the half-inhibitory concentration (IC50) is 14.1 µM.

For `CCCCC(CC)CO[Si](OCC(CC)CCCC)(OCC(CC)CCCC)OCC(CC)CCCC` (configuration not stated), the outcome was inactive.

As for `c1ccn2nncc2c1`, the EC50 is greater than 200 µM and the half-maximal inhibitory concentration (IC50) was greater than 200 µM.

Take `COc1ccc([C@@H]2CC(=O)N2)cc1`: the EC50 was greater than 200 µM and the 50% inhibitory concentration (IC50) was greater than 200 µM.

Regarding `CNC(=O)c1cc2nc3ccccc3c(=O)n2c2ccccc12`, the EC50 is greater than 100 µM and the 50% inhibitory concentration (IC50) was greater than 100 µM.

Take `Cc1ccc(S(=O)(=O)c2ccsc2NC(=O)c2ccccc2)cc1`: the EC50 is greater than 100 µM and the IC50 was greater than 100 µM.

Consider `Clc1ccc(/C=N\N2CCCCCC2)cc1Cl`, for which the EC50 is greater than 200 µM and the half-inhibitory concentration (IC50) is 35.5 µM.

For the compound `Cc1cc(O)c2c(=O)c(=O)c2c1`, the EC50 was greater than 1550 µM and the IC50 turned out to be 275 µM.

Regarding `COc1cc(C2C3C=CC=C4CC=CC(=C43)C3CCC(=O)N32)cc(OC)c1OC` (configuration not stated), the EC50 is greater than 200 µM and the IC50 is greater than 200 µM.

In the case of `C[n+]1ccc(Nc2ccc(O)cc2)c2ccc(Cl)cc21`, the EC50 is greater than 603 µM and the IC50 came out at 11 µM.

Consider `N[C@@H]1c2c(Br)sc(Br)c2C(=O)[C@H]1Br`, for which the EC50 was greater than 200 µM; the concentration for half-maximal inhibition (IC50) is 23.4 µM and 26.9 µM.

With `Cc1ccc2oc(=O)cc(CC(=O)O)c2c1`, the EC50 was greater than 1150 µM and the IC50 is greater than 1150 µM.

Consider `NC(=S)N/N=C1\CCCCC1C(O)(C(F)(F)Cl)C(F)(F)Cl` (configuration not stated), for which the EC50 is greater than 200 µM and the half-maximal inhibitory concentration (IC50) was greater than 200 µM.

Take `O=c1[nH]nnc2c1cnn2C1CCCO1` (configuration not stated): the result was inactive.

For the compound `COC1(OC)C=NNc2nccn21`, the EC50 is greater than 200 µM and the half-maximal inhibitory concentration (IC50) was greater than 200 µM.

For `CC(=O)CCS(=O)(=O)O`, the EC50 was greater than 200 µM and the concentration for half-maximal inhibition (IC50) is greater than 200 µM.

`CCOC(=O)c1c(N2CCOCC2)[nH]c(=O)c(C(c2c(O)c(C(=O)OCC)c(N3CCOCC3)[nH]c2=O)C(C)C)c1O`: the EC50 was greater than 200 µM and the IC50 was greater than 200 µM.

Turning to `O=C1Cc2ccccc2CCc2ccccc21`, the EC50 was 135 µM and the IC50 is greater than 200 µM.

For the compound `CNNC(=NS(=O)(=O)c1cc(C#N)c(NNC)cc1S)NNC`, the outcome was inactive.

On to `CCc1cccc(C(C)C)c1NC(=O)C(=O)C(CC(=O)Nc1ccc(Cl)c(Cl)c1)C(=O)OC` (configuration not stated), for which the EC50 is greater than 10.7 µM and the IC50 was greater than 10.7 µM.

Broadly, the EC50 is the midpoint of the concentration-response curve. Usually IC50 stands for the concentration at which inhibition is half-maximal. A high value points to lower potency.
